{"source": "patent US9334242B2", "about": "“Compounds for treatment of cancer” (GTX, INC., priority 2010, dated 2016)", "key": {"[1]": {"system": "A375 human melanoma xenograft", "assay": "In vivo anti-tumor activity, A375 human melanoma xenograft on SHO mice", "conditions": "25 mg/kg, 31 days"}, "WM-164": {"system": "WM-164", "assay": "Cytotoxicity / cell growth inhibition, SRB assay", "format": "cell-based", "conditions": "Homo sapiens, WM164, Table 6A"}, "B16-F1": {"system": "B16-F1", "assay": "Cytotoxicity / cell growth inhibition, sulforhodamine B (SRB) assay", "format": "cell-based", "conditions": "Mus musculus, B16-F1, 96 h, 96 h of treatment, read-out: IC50 ± SEM (nM) B16-F1"}, "DU 145": {"system": "DU 145", "assay": "Cytotoxicity / cell growth inhibition, SRB assay", "conditions": "Homo sapiens, DU-145, 96 h, read-out: IC50 ± SEM (nM) DU 145, SRB assay, 96 h of treatment"}, "A375": {"system": "A375", "assay": "Cytotoxicity / cell growth inhibition, SRB assay", "format": "cell-based", "conditions": "Homo sapiens, A-375, 96 h, 96 h of treatment, read-out: IC50 ± SEM (nM) A375"}, "PC-3": {"system": "PC-3", "assay": "Cytotoxicity / cell growth inhibition, SRB assay", "conditions": "Homo sapiens, PC-3, 96 h, read-out: IC50 ± SEM (nM) PC-3, SRB assay, 96 h of treatment"}, "LNCaP": {"system": "LNCaP", "assay": "Cytotoxicity / cell growth inhibition, SRB assay", "conditions": "Homo sapiens, 96 h, read-out: IC50 ± SEM (nM) LNCaP, SRB assay, 96 h of treatment"}, "PPC-1": {"system": "PPC-1", "assay": "Cytotoxicity / cell growth inhibition, SRB assay", "conditions": "Homo sapiens"}, "PC-3_TxR": {"system": "PC-3_TxR", "assay": "Cytotoxicity SRB assay, paclitaxel-resistant prostate line", "conditions": "for IC50: Homo sapiens, PC3-TxR, read-out: IC50 ± SEM (nM) PC-3_TxR; for Resistance Factor: PC-3_TxR versus PC-3"}, "in vivo": {"assay": "in vivo", "conditions": "female, Sprague-Dawley, rat, plasma, 10 mg/kg"}, "[2]": {"assay": "Pharmacokinetic study in Sprague-Dawley rats", "conditions": "rat"}, "[3]": {"assay": "Pharmacokinetic study in ICR mice"}, "Porcine brain tubulin": {"system": "Porcine brain tubulin", "assay": "In vitro microtubule polymerization assay", "format": "biochemical"}, "MES-SA/DX5": {"system": "MES-SA/DX5", "assay": "Growth inhibition SRB assay, P-gp over-expressing line", "format": "cell-based", "conditions": "Homo sapiens, Table 6, read-out: IC50 ± SEM (nM) MES-SA/Dx5"}, "[4]": {"system": "T1, tubulin colchicine binding site", "T1 construct": "[…]; other: SPA", "assay": "[3H]-colchicine competition-binding scintillation proximity assay", "conditions": "SPA"}, "MES-SA": {"system": "MES-SA", "assay": "Growth inhibition SRB assay, parental line", "format": "cell-based", "conditions": "Homo sapiens, Table 6, read-out: IC50 ± SEM (nM) MES-SA"}, "OVCAR-8": {"system": "OVCAR-8", "assay": "Cytotoxicity SRB assay, MDR model parent line", "format": "cell-based", "conditions": "Homo sapiens"}, "WM-164 melanoma cells": {"system": "WM-164 melanoma cells", "assay": "Microtubule imaging (immunofluorescence, Cellomics Cytoskeleton rearrangement kit)", "format": "cell-based, human", "conditions": "WM-164 cells, 18 h", "source_text": "Primary antibody for tubulin and fluorescence-labeled secondary antibody were subsequently added to the cells. Cell nuclei were stained by DAPI. Whole Cell Stain Green was also applied to all cells. All images were acquired with an Olympus IX71 inverted fluorescence microscope (Olympus Corp., Tokyo, Japan) with overlays from separate images of tubulin (red), nuclei (blue), and whole cells (green)."}}, "note": "Like-named read-outs stand apart in the source and are kept apart here."}
{"smiles": "O=C(c1ccc(F)cc1)c1c[nH]c(-c2ccc(Cl)cc2)n1", "note": "[12fb, (2-(4-chlorophenyl)-1H-imidazol-4-yl)(4-fluorophenyl)methanone]", "values": [{"measurement": "tolerability (body weight, physical activity)", "setting": "[1]", "result": "well tolerated"}]}
{"smiles": "O=C(c1ccc(F)cc1)c1csc(-c2ccccc2)n1", "note": "[compound 12]", "values": [{"measurement": "IC50", "setting": "WM-164", "result": "> 10000", "unit": "nM"}]}
{"smiles": "O=C(c1ccc2[nH]ccc2c1)c1csc(-c2cc3ccccc3[nH]2)n1", "note": "[compound 21, (2-(1H-indol-2-yl)thiazol-4-yl)(1H-indol-5-yl)methanone]", "values": [{"measurement": "IC50", "setting": "B16-F1", "result": 110, "unit": "nM"}, {"measurement": "IC50", "setting": "DU 145", "result": 116, "unit": "nM"}, {"measurement": "IC50", "setting": "A375", "result": 100, "unit": "nM"}, {"measurement": "IC50", "setting": "PC-3", "result": 87, "unit": "nM"}, {"measurement": "IC50", "setting": "LNCaP", "result": 103, "unit": "nM"}, {"measurement": "IC50", "setting": "PPC-1; PPC-1, 96 h, read-out: IC50 ± SEM (nM) PPC-1, SRB assay, 96 h of treatment", "result": 76, "unit": "nM"}]}
{"smiles": "COc1cc(C(=O)c2csc(Nc3ccc4[nH]ccc4c3)n2)cc(OC)c1OC", "note": "[compound 55, (2-(1H-indol-5-ylamino)thiazol-4-yl)(3,4,5-trimethoxyphenyl)methanone]", "values": [{"measurement": "IC50", "setting": "PC-3_TxR", "result": "29 ± 1", "unit": "nM"}, {"measurement": "Resistance Factor", "setting": "PC-3_TxR", "result": 1.2}, {"measurement": "bioavailability", "setting": "in vivo; oral", "result": 33, "unit": "%"}, {"measurement": "bioavailability", "setting": "in vivo; po", "result": 33, "unit": "%"}, {"measurement": "RatPK_IV5mgk_V", "setting": "[2]; i.v. 5 mg/kg", "result": 1.0, "unit": "Lkg"}, {"measurement": "RatPK_PO10mgk_AUC", "setting": "[2]; p.o. 10 mg/kg", "result": 335, "unit": "µg·min/mL"}, {"measurement": "RatPK_PO10mgk_Cmax", "setting": "[2]; p.o. 10 mg/kg", "result": 1052, "unit": "ng/mL"}, {"measurement": "MousePK_IV10mgk_Cl", "setting": "[3]; mouse, i.v. 10 mg/kg", "result": 40, "unit": "mLmin/kg"}, {"measurement": "MousePK_IV10mgk_V", "setting": "[3]; mouse, i.v. 10 mg/kg", "result": 1.3, "unit": "Lkg"}, {"measurement": "MousePK_Bioavailability", "setting": "[3]; mouse, oral", "result": 34, "unit": "%F"}, {"measurement": "oral bioavailability, mice", "setting": "[3]; p.o. 20 mg/kg versus i.v. 10 mg/kg", "result": 34, "unit": "%"}, {"measurement": "inhibition of tubulin polymerization at 1 μM", "setting": "Porcine brain tubulin", "result": 11, "unit": "%"}]}
{"smiles": "CC(=O)O[C@H]1C(=O)[C@@]2(C)[C@H]([C@H](OC(=O)c3ccccc3)[C@]3(O)C[C@H](OC(=O)[C@H](O)[C@@H](NC(=O)c4ccccc4)c4ccccc4)C(C)=C1C3(C)C)[C@]1(OC(C)=O)CO[C@@H]1C[C@@H]2O", "note": "[paclitaxel]", "values": [{"measurement": "IC50", "setting": "PC-3_TxR", "result": "97 ± 1", "unit": "nM"}, {"measurement": "Resistance Factor", "setting": "PC-3_TxR", "result": 20}, {"measurement": "IC50", "setting": "MES-SA/DX5", "result": 6.6, "unit": "nM"}, {"measurement": "competition for the tubulin colchicine binding site (in words)", "setting": "[4]", "result": "flat line"}, {"measurement": "IC50", "setting": "MES-SA", "result": 2.7, "unit": "nM"}, {"measurement": "IC50", "setting": "OVCAR-8; OVCAR-8, read-out: IC50 (nM) OVCAR-8", "result": "4.7 ± 0.1", "unit": "nM"}, {"measurement": "IC50", "setting": "OVCAR-8; OVCAR-8, read-out: IC50 ± SEM (nm) OVCAR-8", "result": "4.7 ± 0.1", "unit": "nM"}, {"measurement": "effect on microtubule arrangement", "setting": "WM-164 melanoma cells", "result": "condensation of microtubules"}, {"measurement": "IC50", "setting": "PPC-1; PPC-1, 96 h, read-out: IC50 ± SEM (nM) PPC-1", "result": 2.3, "unit": "nM"}, {"measurement": "IC50", "setting": "PPC-1; PPC-1, read-out: IC50 ± SEM (nM) PPC-1", "result": "2.3 ± 0.8", "unit": "nM"}, {"measurement": "IC50", "setting": "PPC-1; PPC-1, read-out: IC50 ± SEM (nm) PPC-1", "result": "2.3 ± 0.8", "unit": "nM"}]}
